Laboratory results published in patent US20100056497A1, “AMIDE DERIVATIVE” (DAINIPPON SUMITOMO PHARMA CO., LTD, priority 2007, published 2010).
Where a name gives a salt, the structure may show the parent alone.

Molecular target: T1, Recombinant human renin (Homo sapiens, UniProt P00797)
T1 sequence (P00797 67-406): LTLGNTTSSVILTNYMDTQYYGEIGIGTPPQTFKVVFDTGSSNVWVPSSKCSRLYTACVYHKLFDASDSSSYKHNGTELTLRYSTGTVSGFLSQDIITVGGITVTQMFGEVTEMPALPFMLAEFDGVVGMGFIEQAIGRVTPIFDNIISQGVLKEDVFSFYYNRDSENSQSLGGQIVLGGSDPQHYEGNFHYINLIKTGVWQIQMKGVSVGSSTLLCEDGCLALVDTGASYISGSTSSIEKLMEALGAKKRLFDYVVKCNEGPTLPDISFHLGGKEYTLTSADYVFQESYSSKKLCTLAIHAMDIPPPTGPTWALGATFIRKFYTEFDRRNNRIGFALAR
Assay: In vitro renin inhibitory activity assay (fluorescence, FRET peptide substrate)
Type: biochemical
Conditions: 37° C., one hour, substrate 4 μM, pH 7.4
Protocol: In Vitro Renin Inhibitory Activity Assay
Recombinant human renin (50 ng) was reacted in 0.1M BEPES buffer (pH 7.4) containing 0.1M NaCl, 1 mM EDTA and 0.1 mg/mL BSA together with a substrate and a test compound at 37° C. for one hour. As the substrate, Arg-Glu(EDANS)-Ile-His-Pro-Phe-His-Leu-Val-Ile-His-Thr-Lys(DABCYL)-Arg or DABCYL-γ-Abu-Ile-His-Pro-Phe-His-Leu-Val-Ile-His-Thr-EDANS was added in such an amount so that the final concentration thereof became 4 μM. The elevated fluorescence intensity at the exciting wavelength 340 nm and the fluorescence wavelength 500 nm was measured by a fluorescence plate reader. The concentration of a test compound to be needed to inhibit an enzyme activity in the presence of a test compound in plural concentrations by 50% was calculated as an IC50 value.
The amino acid sequence disclosed in Seq ID:1 is an amino acid sequence used in the renin inhibitory activity assay.
The amino acid sequence disclosed in Seq ID:2 is an amino acid sequence used in the renin inhibitory activity assay.

| Compound | IC50 [nM] |
| --- | --- |
| COCCCOc1cc(C(=O)N(C(C)C)[C@@H]2CC[C@H](CCN(C(=O)Cc3cccc(C(=O)O)c3)C3CC3)NC2)ccc1OC [Example 86, 3-(2-{Cyclopropyl[2-((2R,5R)-5-{isopropyl[4-methoxy-3-(3-methoxypropoxy)-benzoyl]amino}piperidin-2-yl)ethyl]amino}-2-oxoethyl)benzoic acid hydrochloride] | 4 |
| COCCCOc1cc(C(=O)N(C(C)C)[C@@H]2CC[C@H](CCN(C(=O)Cc3ccccc3C(F)(F)F)C3CC3)NC2)ccc1OC [Example 74, N-{(3R,6R)-6-[2-(Cyclopropyl{[2-(trifluoromethyl)phenyl]acetyl}amino)ethyl]-piperidin-3-yl}-N-isopropyl-4-methoxy-3-(3-methoxypropoxy)benzamide trifluoroacetate] | 5.1 |
| COCCCCN1C(=O)C(C)(C)Oc2ccc(C(=O)N(C(C)C)[C@@H]3CCCNC3)cc21 [Example 126, N-Isopropyl-4-(4-methoxybutyl)-2,2-dimethyl-3-oxo-N-[(3R)-piperidin-3-yl]-3,4-dihydro-2H-1,4-benzoxazine-6-carboxyamide hydrochloride] | 21.7 |
| COCCCOc1cc(C(=O)N(C(C)C)[C@@H]2CCCNC2)c(Cl)cc1OC [Example 53, 2-Chloro-N-isopropyl-methoxy-5-(3-methoxypropoxy)-N-[(3R)-piperidin-3-yl]-benzamide hydrochloride] | 220 |
| COCCCOc1cc(C(=O)N(C(C)C)[C@@H]2CCCNC2)c(C)cc1OC [Example 27, N-Isopropyl-4-methoxy-5-(3-methoxypropoxy)-2-methyl-N-[(3R)-piperidin-3-yl]-benzamide] | 190 |
| COCCCOc1cc(C(=O)N(C(C)C)[C@@H]2CC[C@H](CCN(C(=O)CCOC)C3CC3)NC2)ccc1OC [Example 64, N-((3R,6R)-6-{2-[Cyclopropyl(3-methoxypropanoyl)amino]ethyl}piperidin-3-yl)-N-isopropyl-4-methoxy-3-(3-methoxypropoxy)benzamide hydrochloride] | 16.8 |
| COCCCOc1cc(C(=O)N(C(C)C)[C@@H]2CC[C@H](CCN(C(=O)CC(C)(C)O)C3CC3)NC2)ccc1OC [Example 67, N-((3R,6R)-6-{2-[Cyclopropyl(3-hydroxy-3-methylbutanoyl)amino]ethyl}piperidin-3-yl)-N-isopropyl-4-methoxy-3-(3-methoxypropoxy)benzamide hydrochloride] | 12.9 |
| COCCCOc1cc(C(=O)N(C(C)C)[C@@H]2CC[C@H](CCN(C(=O)Cc3ccccc3Cl)C3CC3)NC2)ccc1OC [Example 72, N-((3R,6R)-6-{2-[[(2-chlorophenyl)acetyl](cyclopropyl)amino]ethyl}piperidin-3-yl)-N-isopropyl-4-methoxy-3-(3-methoxypropoxy)benzamide trifluoroacetate] | 3.7 |
| COCCCOc1cc(C(=O)N(C(C)C)C2CNC[C@@H](COC(=O)NCCc3ccccc3)C2)ccc1OC (mixture of isomers) [Example 31, ((rac.)-(3S,5R)-5-{Isopropyl[4-methoxy-3-(3-methoxypropoxy)benzoyl]amino}-piperidin-3-yl)methyl(2-phenylethyl)carbamate hydrochloride] | 240 |
| COCCCOc1cc(C(=O)N(C(C)C)[C@H]2CNC[C@@H](COc3ccccc3-c3ccccc3)C2)ccc1OC (racemic) [Example 46, N-{(rac.)-(3R,5S)-5-[(Biphenyl-2-yloxy)methyl]piperidin-3-yl}-N-isopropyl-4-methoxy-3-(3-methoxypropoxy)benzamide hydrochloride] | 790 |
| COCCCOc1cc(C(=O)N(C(C)C)[C@@H]2CC[C@H](CCN(C(=O)Cc3ccccc3)C(C)C)NC2)ccc1OC (racemic) [Example 55, N-Isopropyl-N-((rac.)-(3R,6R)-6-{2-[isopropyl(phenylacetyl)amino]ethyl}piperidin-3-yl)-4-methoxy-3-(3-methoxypropoxy)benzamide hydrochloride] | 690 |
| COCCCOc1cc(C(=O)N(C[C@@H]2CCNC2)C(C)C)ccc1OC [Compound B, reference compound] | 2300 |
| COCCCOc1cc(C(=O)N(C(C)C)[C@@H]2CC[C@H](CC(=O)N(C(C)C)C3CCCCC3)NC2)ccc1OC (racemic) [Example 51, N-((rac.)-(3R,6R)-6-{2-[Cyclohexyl(isopropyl)amino]-2-oxoethyl}piperidin-3-yl)-N-isopropyl-4-methoxy-3-(3-methoxypropoxy)benzamide hydrochloride] | 500 |
| CCN(C(=O)C[C@H]1CC[C@@H](N(C(=O)c2ccc(OC)c(OCCCOC)c2)C(C)C)CN1)C(C)C (racemic) [Example 22, N-((rac.)-(3R,6R)-6-{2-[Ethyl(isopropyl)amino]-2-oxoethyl}piperidin-3-yl)-N-isopropyl-4-methoxy-3-(3-methoxypropoxy)benzamide hydrochloride] | 480 |
| COCCCOc1cc(C(=O)N(C(C)C)[C@@H]2CC[C@H](CC(=O)NC3CC3)NC2)ccc1OC (racemic) [Example 52, N-{ (rac.)-(3R,6R)-6-[2-(Cyclopropylamino)-2-oxoethyl]piperidin-3-yl)-N-isopropyl-4-methoxy-3-(3-methoxypropoxy)benzamide hydrochloride] | 590 |
| COCCCOc1cc(C(=O)N(C(C)C)[C@@H]2CC[C@H](CCN(C(=O)CCCO)C3CC3)NC2)ccc1OC [Example 66, N-((3R,6R)-6-{2-[Cyclopropyl(4-hydroxybutanoyl)amino]ethyl}piperidin-3-yl)-N-isopropyl-4-methoxy-3-(3-methoxypropoxy)benzamide hydrochloride] | 61 |
| COCCCOc1cc(C(=O)N(C(C)C)[C@@H]2CCCNC2)ccc1OC [Example 1, N-Isopropyl-4-methoxy-3-(3-methoxypropoxy)-N-[(3R)-piperidin-3-yl]benzamide hydrochloride] | 330 |

Next, values leading:

| IC50 [nM] | Compound |
| --- | --- |
| 4.7 | COCCCOc1cc(C(=O)N(C(C)C)[C@@H]2CC[C@H](CCN(C(=O)Cc3ccccn3)C3CC3)NC2)ccc1OC [Example 75, N-((3R,6R)-6-{2-[Cyclopropyl(pyridin-2-ylacetyl)amino]ethyl}piperidin-3-yl)-N-isopropyl-4-methoxy-3-(3-methoxypropoxy)benzamide trifluoroacetate] |
| 540 | COCCCOc1cc(C(=O)N(C(C)C)[C@H]2CNC[C@@H](COc3cccc(OCc4ccccc4)c3)C2)ccc1OC (racemic) [Example 50, hydrochloride] |
| 930 | CCOC(=O)C[C@H]1CC[C@@H](N(C(=O)c2ccc(OC)c(OCCCOC)c2)C(C)C)CN1 (racemic) [Example 14, Ethyl ((rac.)-(2R,5R)-5-{isopropyl[4-methoxy-3-(3-methoxypropoxy)benzoyl]-amino}piperidin-2-yl)acetate] |
| 150 | CCN(CCc1ccccc1)C(=O)OC[C@@H]1CNC[C@H](N(C(=O)c2ccc(OC)c(OCCCOC)c2)C(C)C)C1 (racemic) [Example 58] |
| 620 | COCCCOc1cc(C(=O)N(C(C)C)[C@H]2CNC[C@@H](COc3cccc(-c4ccccc4)c3)C2)ccc1OC (racemic) [Example 48, N-{(rac.)-(3R,5S)-5-[(Biphenyl-3-yloxy)methyl]piperidin-3-yl}-N-isopropyl-4-methoxy-3-(3-methoxypropoxy)benzamide hydrochloride] |
| 0.79 | COCCCOc1cc(C(=O)N(C(C)C)[C@@H]2CC[C@H](CCN(C(=O)Cc3cccnc3)C3CC3)NC2)ccc1OC [Example 78, N-((3R,6R)-6-{2-[Cyclopropyl(pyridin-3-ylacetyl)amino]ethyl}piperidin-3-yl)-N-isopropyl-4-methoxy-3-(3-methoxypropoxy)benzamide trifluoroacetate] |
| 6.7 | COCCCOc1cc(C(=O)N(C(C)C)[C@@H]2CC[C@H](CCN(C(=O)C=C(C)C)C3CC3)NC2)ccc1OC [Example 68, N-((3R,6R-6-{2-[Cyclopropyl(3-methyl-2-butenoyl)amino]ethyl}piperidin-3-yl)-N-isopropyl-4-methoxy-3-(3-methoxypropoxy)benzamide hydrochloride] |
| 330 | COCCCOc1cc(C(=O)N(C(C)C)[C@@H]2CC[C@@H](CCN(C(=O)Cc3ccccc3)C3CC3)NC2)ccc1OC (racemic) [Example 23, N-((rac.)-(3R,6S)-6-{2-[Cyclopropyl(phenylacetyl)amino]ethyl}piperidin-3-yl)-N-isopropyl-4-methoxy-3-(3-methoxypropoxy)benzamide hydrochloride] |
| 430 | COCCCOc1cc(C(=O)N(C(C)C)C2CNC[C@@H](C(=O)N(C)Cc3ccccc3)C2)ccc1OC (mixture of isomers) [Example 41, (rac.)-(3S,5R)-N-Benzyl-5-{isopropy[4-methoxy-3-(3-methoxyproroxy)benzoyl]-amino}-N-methylpiperidine-3-carboxamide hydrochloride] |
| 110 | CCCN(CCc1ccccc1)C(=O)OC[C@@H]1CNC[C@H](N(C(=O)c2ccc(OC)c(OCCCOC)c2)C(C)C)C1 (racemic) [Example 59] |
